Key:
[1] = test system: s1-12 (canine undifferentiated pleomorphic sarcoma culture)
Procedure: (§1)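 60-agent targeted drug screens (Drug Screen V3 on epithelioid sarcoma cultures PCB490-3/4/5, PCB495, EPS cell lines ESX, VA-ES-BJ, FU-EPS-1 and SkMc myoblasts; PPTI screen v2.1 on human UPS PCB197 and canine UPS S1-12). 384-well plates, 72 h, CellTiter-Glo viability; IC50 by Hill curve fit. 10000 nM = no IC50 achieved (top reported value).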

[2] = test system: pcb-00197 (human undifferentiated pleomorphic sarcoma culture)
Procedure: as §1

[3] = test system: PCB490-3 (human epithelioid sarcoma primary culture)
Procedure: (§2)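 Roche open-access kinase inhibitor screen (223 compounds) on human epithelioid sarcoma primary cultures from three spatially distinct regions of tumor PCB490. 384-well plates, 72 h, CellTiter-Glo viability; IC50 by Hill curve fit. 100000 nM = no IC50 reached. Compound ids carry a plate-well prefix, which is stripped.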

[4] = test system: PCB490-5 (human epithelioid sarcoma primary culture)
Procedure: as §2

[5] = test system: PCB490-4 (human epithelioid sarcoma primary culture)
Procedure: as §2

| SMILES | IC50 cell viability [1] | IC50 cell viability [2] | IC50 cell viability [3] | IC50 cell viability [4] | IC50 cell viability [5] |
| --- | --- | --- | --- | --- | --- |
| C[C@@H](Oc1cc(-c2cnn(C3CCNCC3)c2)cnc1N)c1c(Cl)ccc(F)c1Cl [crizotinib] | 1.18 µM | 1.53 µM |  |  |  |
| Cc1cc(Nc2cc(N3CCN(C)CC3)nc(Sc3ccc(NC(=O)C4CC4)cc3)n2)n[nH]1 [tozasertib] | > 10 µM | > 10 µM |  |  |  |
| Cc1[nH]c2ccccc2c1CCNCc1ccc(/C=C/C(=O)NO)cc1 [panobinostat] | 0.1 µM | 1.05 µM |  |  |  |
| CC/C(=C(\c1ccccc1)c1ccc(OCCN(C)C)cc1)c1ccccc1 [Tamoxifen] | > 10 µM | > 10 µM |  |  |  |
| CCCC(=O)[O-].[Na+] [sodium butyrate] | 1.57 µM | > 10 µM |  |  |  |
| C[C@@]1(C(=O)Nc2ccc(F)nc2)CCCN1c1nc(Nc2cc(C3CC3)n[nH]2)c2cccn2n1 | 0.01 µM | 2.35 µM |  |  |  |
| Cc1ccc(Nc2nccc(N(C)c3ccc4c(C)n(C)nc4c3)n2)cc1S(N)(=O)=O [pazopanib] | > 10 µM | > 10 µM |  |  |  |
| CNC(=O)c1cc(Oc2ccc(NC(=O)Nc3ccc(Cl)c(C(F)(F)F)c3)cc2)ccn1 [sorafenib] | 6.43 µM | > 10 µM |  |  |  |
| COc1cc(Nc2ncc(F)c(Nc3ccc4c(n3)N(COP(=O)(O)O)C(=O)C(C)(C)O4)n2)cc(OC)c1OC [Fostamatinib] | 0.73 µM | 4.33 µM |  |  |  |
| COc1nc(C)cnc1NS(=O)(=O)c1cccnc1-c1ccc(-c2nnco2)cc1 [zibotentan] | > 10 µM | > 10 µM |  |  |  |
| Oc1c2ccccc2c2c3c(cccc13)N=N2 | 1.36 µM | > 10 µM |  |  |  |
| CS(=O)(=O)CCNCc1ccc(-c2ccc3ncnc(Nc4ccc(OCc5cccc(F)c5)c(Cl)c4)c3c2)o1 [lapatinib] | > 10 µM | > 10 µM |  |  |  |
| CC(C)(C)c1cnc(CSc2cnc(NC(=O)C3CCNCC3)s2)o1 [SNS-032] | 0.11 µM | 0.78 µM |  |  |  |
| CC(/C=C/C(=O)NO)=C\[C@@H](C)C(=O)c1ccc(N(C)C)cc1 [trichostatin] | 0.87 µM | > 10 µM |  |  |  |
| Nc1cccc2c1CN(C1CCC(=O)NC1=O)C2=O (stereo unspecified) [Lenalidomide] | 2.85 µM | > 10 µM |  |  |  |
| COc1cc(Nc2ncc3c(n2)-c2ccc(Cl)cc2C(c2c(F)cccc2OC)=NC3)ccc1C(=O)O [MLN8237] | 0.98 µM | 2.74 µM |  |  |  |
| CCCS(=O)(=O)Nc1ccc(F)c(C(=O)c2c[nH]c3ncc(-c4ccc(Cl)cc4)cc23)c1F [vemurafenib] | > 10 µM | > 10 µM |  |  |  |
| Cc1nc(Nc2ncc(C(=O)Nc3c(C)cccc3Cl)s2)cc(N2CCN(CCO)CC2)n1 [dasatinib] | 0.86 µM | 0.14 µM |  |  |  |
| COc1cc2c(Oc3ccc4[nH]c(C)cc4c3F)ncnc2cc1OCCCN1CCCC1 [cediranib] | > 10 µM | > 10 µM |  |  |  |
| Cc1cn(-c2cc(NC(=O)c3ccc(C)c(Nc4nccc(-c5cccnc5)n4)c3)cc(C(F)(F)F)c2)cn1 [Nilotinib] | > 10 µM | > 10 µM |  |  |  |

| SMILES | IC50 cell viability [1] | IC50 cell viability [2] | IC50 cell viability [3] | IC50 cell viability [4] | IC50 cell viability [5] |
| --- | --- | --- | --- | --- | --- |
| NC1(c2ccc(-c3nc4ccn5c(=O)[nH]nc5c4cc3-c3ccccc3)cc2)CCC1 [MK-2206] | 1.09 µM | > 10 µM |  |  |  |
| CCN(CCCOc1ccc2c(Nc3cc(CC(=O)Nc4cccc(F)c4)[nH]n3)ncnc2c1)CCOP(=O)(O)O [barasertib] | > 10 µM | > 10 µM |  |  |  |
| Nc1ncn([C@H]2C[C@H](O)[C@@H](CO)O2)c(=O)n1 [decitabine] | 0.33 µM | > 10 µM |  |  |  |
| CN1CC[C@H](c2c(O)cc(O)c3c(=O)cc(-c4ccccc4Cl)oc23)[C@H](O)C1 [Alvocidib] | 0.01 µM | 0.26 µM |  |  |  |
| CN(C)CC[C@H](CSc1ccccc1)Nc1ccc(S(=O)(=O)NC(=O)c2ccc(N3CCN(Cc4ccccc4-c4ccc(Cl)cc4)CC3)cc2)cc1[N+](=O)[O-] [ABT 737] | 1.06 µM | > 10 µM |  |  |  |
| N#CC[C@H](C1CCCC1)n1cc(-c2ncnc3[nH]ccc23)cn1 [ruxolitinib] | 6.93 µM | > 10 µM |  |  |  |
| C=C1C[C@@H]2CC[C@@]34C[C@H]5O[C@H]6[C@@H](O3)[C@H]3O[C@H](CC[C@@H]3O[C@H]6[C@H]5O4)CC(=O)C[C@@H]3[C@@H](OC)[C@@H](C[C@H](O)CN)O[C@H]3C[C@H]3O[C@@H](CC[C@@H]1O2)C[C@@H](C)C3=C [Eribulin] | 1.31 µM | 0.01 µM |  |  |  |
| CC1=C(/C=C/C(C)=C/C=C/C(C)=C/C(=O)O)C(C)(C)CCC1 [retinoic acid] | 2.04 µM | > 10 µM |  |  |  |
| Cn1cc(C2=C(c3cn(C)c4ccc(OCc5ccccc5)cc34)C(=O)NC2=O)c2ccccc21 |  |  | > 100 µM | > 100 µM | > 100 µM |
| O=C1NC(=NCc2ccccn2)S/C1=C\c1ccc2ncccc2c1 |  |  | > 100 µM | > 100 µM | > 100 µM |
| O=c1c(Oc2ccc(F)cc2F)cc2cnc(NC3CCOCC3)nc2n1C1CCS(=O)(=O)CC1 |  |  | > 100 µM | > 100 µM | > 100 µM |
| O=c1c(Oc2ccc(F)cc2F)cc2cnc(NC3CCOCC3)nc2n1C1CC1 |  |  | > 100 µM | > 100 µM | > 100 µM |
| CN(C)CC#Cc1cccc(C(=O)c2cnn(-c3ccc(F)cc3)c2N)c1 |  |  | > 100 µM | > 100 µM | > 100 µM |
| Cn1c(=O)c(Oc2ccc(F)cc2F)cc2cnc(NCCS(C)(=O)=O)nc21 |  |  | > 100 µM | > 100 µM | > 100 µM |
| O=C1NC(=NCc2cccs2)SC1Cc1ccc2ncccc2c1 (stereo unspecified) |  |  | > 100 µM | > 100 µM | > 100 µM |
| Cc1ccccc1C1=C(c2cn(C)c3ccccc23)C(=O)NC1=O |  |  | > 100 µM | > 100 µM | > 100 µM |
| Cn1cc(C2=C(c3cccc(NCC(O)CO)c3)C(=O)NC2=O)c2cc(Cl)ccc21 (stereo unspecified) |  |  | > 100 µM | 2.34 µM | 2 µM |
| Cn1c(=O)c(Cc2ccc(F)cc2F)cc2cnc(NC3CCOCC3)nc21 |  |  | > 100 µM | > 100 µM | > 100 µM |
| CC(C)(O)CCc1cccc(C(=O)c2cnn(-c3ccc(F)cc3)c2N)c1 |  |  | > 100 µM | > 100 µM | > 100 µM |
| O=C1NC(=NCCc2ccc(F)cc2)S/C1=C\c1ccc2ncccc2c1 |  |  | > 100 µM | > 100 µM | > 100 µM |

| SMILES | IC50 cell viability [1] | IC50 cell viability [2] | IC50 cell viability [3] | IC50 cell viability [4] | IC50 cell viability [5] |
| --- | --- | --- | --- | --- | --- |
| CS(=O)(=O)CCCn1c(=O)c(Oc2ccc(F)cc2F)cc2cnc(NC3CCOCC3)nc21 |  |  | > 100 µM | > 100 µM | > 100 µM |
| O=C1C(c2c[nH]c3ccccc23)=C(c2c[nH]c3ccccc23)C(=O)N1O |  |  | > 100 µM | > 100 µM | > 100 µM |
| CS(=O)(=O)CCc1cccc(C(=O)c2cnn(-c3ccc(F)cc3)c2N)c1 |  |  | > 100 µM | > 100 µM | > 100 µM |
| Nc1c(C(=O)c2ccccc2)cnn1-c1ccc(F)cc1 |  |  | > 100 µM | > 100 µM | > 100 µM |
| Nc1c(C(=O)c2cccc(-c3ccncc3)c2)cnn1-c1ccc(F)cc1F |  |  | > 100 µM | > 100 µM | > 100 µM |
| O=C1NC(=NCCc2ccc(Br)cc2)S/C1=C\c1ccc2ncccc2c1 |  |  | > 100 µM | > 100 µM | > 100 µM |
| CC(=O)N[C@@H](Cc1ccc(OP(=O)(O)O)cc1)C(=O)N[C@H]1CCC(=O)N2CCC[C@@H](C(=O)NCc3ccc(O)cc3)N2C1=O |  |  | > 100 µM | > 100 µM | > 100 µM |
| Cn1c(=O)c(Oc2ccc(F)cc2F)cc2cnc(NC3CCOCC3)nc21 |  |  | > 100 µM | > 100 µM | > 100 µM |
| Nc1c(C(=O)c2cccc(CCC3(O)CCCC3)c2)cnn1-c1ccc(F)cc1 |  |  | > 100 µM | > 100 µM | > 100 µM |
| COc1cccc2c1c(C1=C(c3cn(C)c4ccccc34)C(=O)NC1=O)cn2C |  |  | > 100 µM | > 100 µM | > 100 µM |
| N=C1N=C(N)/C(=C/c2ccc3ncccc3c2)S1 |  |  | > 100 µM | > 100 µM | > 100 µM |
| C[C@@H](Cn1ncnn1)Nc1ncc2cc(Oc3ccc(F)cc3F)c(=O)n(C)c2n1 |  |  | > 100 µM | > 100 µM | > 100 µM |
| Cn1cc(C2=C(c3cn(CCCN)c4ccccc34)C(=O)NC2=O)c2ccccc21 |  |  | > 100 µM | > 100 µM | > 100 µM |
| Cn1cc(C2=C(c3cn(C)c4c(N)cccc34)C(=O)NC2=O)c2ccccc21 |  |  | > 100 µM | > 100 µM | > 100 µM |
| Nc1c(C(=O)c2cccc(-c3ccc[n+]([O-])c3)c2)cnn1-c1ccc(F)cc1F |  |  | > 100 µM | > 100 µM | > 100 µM |
| Cn1c(=O)c(Oc2ccc(F)cc2F)cc2cnc(NC3CCS(=O)(=O)CC3)nc21 |  |  | > 100 µM | > 100 µM | > 100 µM |
| O=C1NC(=NCc2ccccc2Br)S/C1=C\c1ccc2ncccc2c1 |  |  | > 100 µM | > 100 µM | > 100 µM |
| Nc1c(C(=O)c2ccc(CCCN3CCOCC3)cc2)cnn1-c1ccc(F)cc1 |  |  | > 100 µM | > 100 µM | > 100 µM |
